Read-outs that look alike come from different tables or passages of the source. Where a SMILES comes first, the peptide text is derived from it.
Legend:
[1] = test system: antigenic peptide-pulsed L^kb cells
[2] = test system: HSV peptide-pulsed L cells; conditions: peptide given as inoculated pressure sensitive adhesive tape
Method: At 1 week after the peptide application, cervical lymph node was removed, and lymphocytes were cultured for 2 days in vitro in an RPMI1640 medium containing a slight amount (5 U/ml) of IL-2. The L^kb cells labeled with ^51Cr were pulsed with antigenic peptide (5 µmol) and L^tk- cells were used as a control. Cytotoxicity assay was performed using cultured lymphocytes as effector cells, and ^51Cr-labeled and antigenic peptide-pulsed L^kb cells and L^tk- cells as target cells. […] The antigenic peptides used were the three kinds recited in Reference Example 1.

Structure (SMILES) | cytotoxic activity of cervical lymphocyte-derived effector cells (antigen specificity) [1] | Cytotoxic activity specific to HSV peptide-pulsed L cells (%) ([2]; time after stripping 12) | Cytotoxic activity specific to HSV peptide-pulsed L cells (%) ([2]; time after stripping 24) | Cytotoxic activity specific to HSV peptide-pulsed L cells (%) ([2]; time after stripping 48) | Cytotoxic activity specific to HSV peptide-pulsed L cells (%) ([2]; time after stripping: untreated)
CC[C@H](C)[C@H](NC(=O)[C@H](CO)NC(=O)[C@@H](N)CO)C(=O)N[C@@H](CCC(=O)O)C(=O)N[C@@H](Cc1ccccc1)C(=O)N[C@@H](C)C(=O)N[C@@H](CCCNC(=N)N)C(=O)N[C@@H](CC(C)C)C(=O)O [HSV gp B, Ser Ser Ile Glu Phe Ala Arg Leu] (H-SSIEFARL-OH) | recognized and certainly eradicated the cells presenting an H-2K^b - HSV gp B peptide complex alone | 45.3 ± 1.5% | 37.0 ± 1.1% | 3.5 ± 0.6% | 0.2 ± 0.8%
CC[C@H](C)[C@H](NC(=O)[C@@H](NC(=O)[C@@H](N)CO)[C@@H](C)CC)C(=O)N[C@@H](CC(N)=O)C(=O)N[C@@H](Cc1ccccc1)C(=O)N[C@@H](CCC(=O)O)C(=O)N[C@@H](CCCCN)C(=O)N[C@@H](CC(C)C)C(=O)O [Ovalbumin, Ser Ile Ile Asn Phe Glu Lys Leu] | selectively damaged the cells presenting respective inoculated antigenic peptides |  |  |  | 
CC(C)C[C@H](NC(=O)CNC(=O)[C@H](CCC(N)=O)NC(=O)[C@H](Cc1ccc(O)cc1)NC(=O)[C@@H](NC(=O)[C@H](Cc1ccc(O)cc1)NC(=O)CNC(=O)[C@@H](N)CCCNC(=N)N)C(C)C)C(=O)O [VSV NP, Arg Gly Tyr Val Tyr Gln Gly Leu] | selectively damaged the cells presenting respective inoculated antigenic peptides |  |  |  | 
